Key:
NO = NO production in LPS-stimulated RAW264.7 cells (Griess reagent); assay type: cell-based, mouse; settings: pretreatment 1 h, LPS 100 ng/ml 18 h
Procedure: (§1) RAW264.7 and A549 cell lines were obtained from American Type Culture Collection (ATCC, Manassas, Va., USA) and maintained in DMEM (RAW264.7) or 1640 (A549) medium containing 10% FBS (Gibco-BRL, Grand Island, N.Y., USA) and antibiotics at 37° C. in a humidified atmosphere containing 5% CO2. RAW264.7 cells were plated in 6-well plates at a density of 4×10^5 cells and incubated for 24 h, then the cells were pretreated with different concentrations of SIN for 1 h before stimulating with LPS (100 ng/ml). A549 cells were seeded in 6-well plates at a density of 1×10^5 cells and incubated for 24 h, followed by pretreatment with SIN. A549 cells were then stimulated by IL-1β (1 ng/ml).
(§2) RAW264.7 cells and rat peritoneal macrophages were seeded in a 96-well plate at density of 1.4×10^4 and 1.5×10^5 cells, respectively. Various concentration of SIN was added to the cells for 1 hour before LPS stimulation. After stimulation with LPS for 18 h (RAW264.7 cells) or 24 h (rat peritoneal macrophages), MTT solution was added to each well and incubated for another 4 hours. 100 μl 10% SDS-HCl solution was added to each well for overnight to dissolve the formazan dye. The optical density was measured at 570 nm against a reference wavelength of 650 nm using a microplate UV/VIS spectrophotometer (Tecan, Mannedorf, Switzerland). […]

TNF-α = TNF-α level in LPS-stimulated RAW264.7 cells (ELISA); assay type: cell-based, mouse; settings: pretreatment 1 h, LPS 100 ng/ml 18 h
Procedure: as §1, §2

NF-κB = assay: EMSA for NF-κB DNA binding activity in LPS-stimulated rat peritoneal macrophages; assay type: cell-based; settings: LPS-induced, nuclear extract
Procedure: Nuclear extract proteins (10 μg) for the assay of the DNA binding activity of NF-κB were tested with a biotin-labeled oligonucleotide bio-NF-κB probe according to manufacturer's instructions of EMSA kit (Viagene Biotech).

COC1=C[C@@H]2[C@@H]3Cc4ccc(OC)c(O)c4[C@]2(CCN3C)CC1=O [SIN, sinomenine]
NO production (nitrite) (NO): significantly inhibited
TNF-α production (TNF-α): significantly inhibited
NF-κB DNA binding activity (EMSA) (NF-κB): capable of suppressing
